Assay results: patent US6429204B1, “Method of inhibiting cancer growth” (University of Miami, priority 1997, dated 2002)
Values after ≈ are worked out from the molar mass of the structure shown. Values joined by “and” are separate entries in the source; they are usually repeats but may differ in a detail not shown here. Equal entries are not always repeated.

What was measured:
DU-145 tumor cells = test: Alamar Blue viability assay, DU-145; format: cell-based, human
Source text: Several cancer cell lines and normal cells were examined in vitro to determine whether tetracycline compounds produce cytotoxic (cell killing) effects. A conventional assay for viability of cultured cells based on redox activity in the cells was employed (Pagé et al. 1993). The assay uses a redox dye Alamar Blue, which is a fluorogenic indicator dye that is converted to a fluorescent red product only when cells are carrying out electron transport activity, a widely accepted criterion of viability.
Cultured cells from three prostate tumor cell lines, LNCAP, DU-145, and PC-3, and normal prostate stromal cells obtained by biopsy of a normal person, were allowed to grow to confluence in multiwell microplates to minimize differences in proliferative activity among the cell types at the time of exposure to the test compound. CMT-3 was added to the wells at concentrations of 10 μM and 20 μM (50 μM also in the case of DU-145). At the start of the experiment, and again at 1, 2, and 3 days, selected wells were incubated with the indicator dye for 3 hr, and the fluorescence was measured on a Cytofluor 2300 fluorescent microplate reader.

gelatinase B (MMP-9) = test: Gelatin zymography of conditioned media of TSU PR1 and MAT LyLu cells, MMP-9; format: cell-based; details: 48 hours, serum-free medium
Method: (§1) Next we examined whether CMT-3 and doxycycline differentially affect the production of two major classes of gelatinases: gelatinase A (MMP-2) and gelatinase B (MMP-9). Confluent cultures of TSU PR1 and MAT LyLu cells were incubated with various concentrations of doxycycline and CMT-3 for 48 hours in serum-free medium. The conditioned media were then analyzed for MMPs by zymography as described below.
(§2) Conditioned media were collected from the cultures that had been treated with doxycycline or CMT-3 for 2 days. Media were then incubated with SDS-gel electrophoresis sample buffer for 30 min at room temperature, and then analyzed by gel electrophoresis on SDS-polyacrylamide gel (8%) containing gelatin (1 mg/mL). Following electrophoresis, the gels were washed twice with 0.25% TRITON® X100 for 30 min each, and incubated for 18 hr at 37° C. in an MMP digestion buffer comprising 20 mM Tris-HCl, pH 7.4, containing 30 mM NaCl, 1 mM PMSF, 10 mM CaCl2, 2 μM ZnSO4, 0.005% Brij35, and 0.02 NaN3 (Lokeshwar 1993a). After incubation, the gels were briefly rinsed in distilled water and stained with 0.25% Coomassie brilliant blue R250 prepared in 40% isopropanol solution for 1 hr. Gels were destained with 7% acetic acid. the locations of MMPs in the gels were visible as clear areas on a blue background, indicative of digested gelatin.

gelatinase A (MMP-2) = test: Gelatin zymography of conditioned media of TSU PR1 and MAT LyLu cells, MMP-2; format: cell-based; details: 48 hours, serum-free medium
Method: as §1, §2

E-10 Cells = test: MTS cytotoxicity assay, E-10; details: two days
Method: A panel of chemically modified tetracycline compounds and doxycycline were tested for cytotoxicity against two carcinomas: COLO 205 (a human colon carcinoma-derived cell line) and the E-10 clone of MDA-MB-231 (a human breast carcinoma-derived cell line). Cytoxicity was measured using a conventional assay for viability with a tetrazolium salt (MTS). Cells were grown in media containing the CMTs at concentrations ranging from 5 μM to 100 μM for two days. The cells were then incubated with the MTS for several hours before removal of the supernatant medium for determination of formazan, which is generated only by the viable cells. Results are expressed as percent cytotoxicity, which is simply the percent decline in measured formazan concentration in the sampled medium.

MAT LyLu cells = test: Soluble nucleosome ELISA (programmed cell death), MAT LyLu; format: cell-based, rat
Method: An investigation of the cytotoxicity of chemically modified tetracycline compounds for cancer cells was undertaken to determine involvement of programmed cell death (apoptosis) (see Duke et al. 1986). MAT LyLu cells were incubated with various concentration of CMT-3 and doxycycline. Conditioned media were assayed for soluble nucleosomes, resulting from internucleosomal DNA strand breaks, using the Cell Death Detection ELISA Plus kit from Boehringer Mannheim GmbH (Catalog No. 1774425) according to the manufacturer's instructions. In the dosage-dependence trials, cells were incubated with the tetracycline compounds for 48 hr, and then media were collected. In the time trials, the cells were exposed to the tetracycline compounds for specific periods of time from 0 to 48 hr, and if appropriate were maintained in fresh media until 48 hr from the start of the experiment at which time media were collected.

[1] = tested on: DU-145 and TSU-PR1 prostate cancer cell lines; test: Prostate cancer cell viability/proliferation (trypan blue, MTT); format: cell-based, human; details: Homo sapiens; 48 hr exposure; read-out: 50% inhibition dose (IC50), cell proliferation
Source text: To determine the cytotoxicity of CMTs on prostate tumor cell lines, TSU-PR1 cells (and cells of other tumor cell lines) were exposed to various CMTs or to doxycycline for 24 hr or 48 hr in a complete medium. Cell viability (percent of live cells) was estimated by counting the cells following trypan blue staining. Cellular viability was also estimated by the tetrazolium dye reduction assay (MTT assay) (Lokeshwar et al. 1995b). Due to the aggressive proliferative capacity of cancer cells, it is assumed that viable cells are actively proliferating. Therefore, the measurement of viability was used as an estimate of proliferation. Results are expressed as Mean±SEM from three separate experiments.

Serum half-life = format: in vivo

With NC(=O)C1=C(O)CC2CC3Cc4cccc(O)c4C(=O)C3=C(O)C2(O)C1=O (stereo not shown) [CMT-3, 6-demethyl-6-deoxy-4-de(dimethylamino)tetracycline] the cytotoxicity (DU-145 tumor cells; 20 μM) was “some cytotoxicity appearing after 72 hr”, the cytotoxicity (DU-145 tumor cells; 50 μM, over 72 hr) was “significant cytoxicity” and the “MMP-9 levels in conditioned media (zymography)” value (gelatinase B (MMP-9)) was “decreased MMP-2 and MMP-9 levels at a lower concentration than did doxycycline”. The “MMP-2 levels in conditioned media (zymography)” value (gelatinase A (MMP-2)) was “decreased MMP-2 and MMP-9 levels at a lower concentration than did doxycycline”, the percent cytotoxicity (E-10 Cells; 10 μM) was 1.8% and the percent cytotoxicity (E-10 Cells; 20 μM) was 4.15% and 8.5%. For the same molecule, the “programmed cell death response after brief exposure” value (MAT LyLu cells; 4 hr at 5 μg/mL or 10 μg/mL) was “sufficient to elicit a putative programmed cell death response”, the “soluble nucleosomes / programmed cell death induction” value (MAT LyLu cells; dosage-dependence, 48 hr) was “dose-dependent increase in soluble nucleosomes” and the IC50 [1] was 2.7 µg/mL (≈ 7.27 µM). The half-life (Serum half-life) was ~28 h.
